“And” between values parts separate entries of the source, which are not always exact repeats. Equal entries are not always repeated.
Target: T1, ARF6 (Homo sapiens, UniProt P62330)
T1 construct: expressed in transfected cells; host or cells: HEK293SL
Experiment: GST-GGA3-PBD pull-down of AT1R-mediated HA-ARF6 activation
Type: cell-based
Settings: for ARF6-GTP/ARF6, GST-GGA3-PBD pull down: Comp 21 50 μM, individual experiments
Method: HEK293 cells were transfected with a BRET sensor that monitors the interaction between β-arrestins and the β-appendage of AP-2 (Fig. 2a)[26],[33]. […] The small GTPase ARF6, which binds β-arrestins and facilitates AP-2 and clathrin recruitment at the PM, is also necessary for CCPs initiation and receptor internalization. Therefore, ARF6 activity was assessed using the protein-3 binding domain (PBD) of the golgi-associated, gamma adaptin ear-containing, ARF-binding protein 3 (GGA3) fused to GST (GST-GGA3-PBD) in a pull-down assay, which allows the detection of GTP-bound ARF6 in cells[34] (Fig. 2b). […] This inhibition was selective for ARF6 since 21 had no effect on AT1R-dependent ARF1 activation (Supplementary Fig. 2a). We also devised a BRET assay to quantitatively assess 21’s action on ARF activity. The ARF BRET assay was created using the GGA3-PBD fused to RlucII (GGA3-PBD-RlucII) and the rGFP anchored at the PM (rGFP-CAAX) (Supplementary Fig. 3a). […] 21 blocked ARF’s activation by 40–60% following AT1R stimulation (Fig. 2c).
Activation of ARF1, ARF6, Ras, and Rho were assessed by using GST pull-down assays. HEK293SL cells were transiently transfected with 3 µg AT1R-flag only (Ras and Rho) or along with 500 ng HA-ARF6 (ARF6) or HA-ARF1 (ARF1). Forty-eight hours later, the HEK293 or MDA-MB-231 cells were serum-starved for 4 h with DMEM containing 20 mM HEPES then pretreated with DMSO or Rasarfin (50 µM) for 30 min. Cells were then stimulated with 1 µM AngII or 100 ng/ml EGF for 0 and 2 min. Cells were then washed once with ice-cold PBS and lysed for 30 min at 4 °C in 300 µl of lysis buffer (pH 7.5, 50 mM Tris-HCl, 140 mM NaCl, 5 mM MgCl2, 10% glycerol (v/v), 1% Nonidet P-40 (v/v), 1 mM dithiothreitol) supplemented with protease inhibitors (1 mM phenylmethyl-sulfonyl fluoride (PMSF), 10 µg/ml leupeptin, 5 µg/ml aprotinin, 1 µg/ml pepstatin A) and phosphatase inhibitors (20 mM NaF, 0.025 mM pervanadate). […] ImageLab 5.2 software was used to quantify the digital blots as fold of the amount of pulled down protein over total protein. […]

T1 sequence (P62330 whole entry, species assumed): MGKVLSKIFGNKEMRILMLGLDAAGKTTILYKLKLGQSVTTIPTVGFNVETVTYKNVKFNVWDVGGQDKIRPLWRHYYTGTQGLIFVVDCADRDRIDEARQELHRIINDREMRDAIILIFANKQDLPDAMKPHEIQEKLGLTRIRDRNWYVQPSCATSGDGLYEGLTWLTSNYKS

Structure (SMILES): CC(C)C(=O)N1CCN(c2ccc(NC(=O)c3cc4ccccc4o3)cc2Cl)CC1 [Compound 21]
- inhibition at 50 µM (50 μM, read-out: inhibition of ARF6-GTP (AngII-stimulated cells, pull-down)): > 70%
- ARF6-GTP/ARF6, GST-GGA3-PBD pull down (AngII): 0.1415 and 0.1921 and 0.09307 and 0.2014
- ARF6-GTP/ARF6, GST-GGA3-PBD pull down (Control (no AngII)): 0.0894 and 0.1773 and 0.03131 and 0.1335

From publication PMC8333425, “Discovery of a dual Ras and ARF6 inhibitor from a GPCR endocytosis screen” (Nature Communications, 2021)
